1 compound from patent publication US9433593B1, “Composition for anti-inflammation containing 5-adamantan-1-yl-N-(2,4-dihydroxy-benzyl)-2,4-dimethoxy-benzamide” (Amorepacific Corporation, priority 2015, dated 2016) can be followed below.

The structures appear in SMILES notation.

The term cell viability denotes a per cent measure of how many cells are alive, often set against a control. Lower therefore signals a greater loss of cells.

Data set [1] deals with RAW 264.7 cells. In words: Cytotoxicity by MTT method. Format: cell-based. The protocol: (§1) RAW 264.7 cells (murine macrophage cell line) (ATCC, Rockville, Md., USA) and HEK 293 cells were cultured in RPMI 1640 medium supplemented with FBS (10% heat-inactivated fetal bovine serum; Gibco, Grand Island, N.Y., USA), glutamine and antibiotics (penicillin and streptomycin) at 37° C. under 5% CO2.
In all experiments, the cells were detached with a cell scraper. When the cells were cultured to a density of 2×10^6 cells/mL, the ratio of dead cells was 1% or lower (determined by the trypan blue dye exclusion method)
During subculturing, RAW 264.7 cells were plated on a well plate to a concentration of 1×10^6 cells/well. After culturing for 18 hours, the cells were treated with 5-adamantan-1-yl-N-(2,4-dihydroxybenzyl)-2,4-dimethoxybenzamide (denoted as ‘AP736’ in FIG. 1) at concentrations of 0-30 μM. Then, the cells were cultured in an incubator for 8 hours or 24 hours. Cytotoxicity was evaluated by the commonly used MTT method. 3 hours before the last culturing, 10 μL of an MTT (3-[4,5-dimethylthiazol-2-yl]-2,5-diphenyltetrazolium bromide) solution (10 mg/mL in phosphate-buffered saline, pH 7.4) was added to each well. After terminating reaction by adding 15% SDS (sodium dodecyl sulfate) to each well, the formed formazan crystals were dissolved. Then, absorbance was measured at 570 nm on a microplate reader.
On the technique in general: Formazan colour is commonly taken as a measure of viable cells.

Data set [2] has as its system NO production in RAW 264.7 cells. Briefly: NO production in LPS-treated cells (Griess test). Format: cell-based, murine. As to conditions: 0-30 μM for 30 minutes, then LPS (1 μg/mL) 24 hours, vs group treated only with LPS. The protocol: as §1
(§2) RAW 264.7 cells (1×10^6 cells/well) that had been preincubated for 18 hours were treated with 5-adamantan-1-yl-N-(2,4-dihydroxybenzyl)-2,4-dimethoxybenzamide (hereinafter, ‘AP736’) at concentrations of 0-30 μM for 30 minutes and then incubated for 6 hours or 24 hours with LPS (1 μg/mL). The supernatant was recovered after the incubation. The cells incubated for 6 hours were subjected to PGE2 analysis and those incubated for 24 hours were subjected to NO analysis. The NO concentration in the culture medium was measured by the Griess test (Promega, Madison, Wis., USA). And, the concentration of PGE2 released to the culture medium was measured using an EIA kit (Amersham, Little Chalfont, Buckinghamshire, UK).
(In general: Griess reagent forms a coloured azo dye with nitrite.)

Data set [3] deals with PGE2 production in RAW 264.7 cells. In words: PGE2 production in LPS-treated cells (EIA kit). Format: cell-based, murine. As to conditions: 0-30 μM for 30 minutes, then LPS (1 μg/mL) 6 hours, vs group treated only with LPS. The protocol: as §1, §2
The test system of data set [4] is iNOS. Briefly: LPS-induced iNOS expression (RT-PCR). Format: cell-based, murine. The note with it: RAW 264.7 cells, pretreated at different concentrations, LPS 4 hours. The protocol:
(§3) The expression level of iNOS, COX-2 and IL-1β which are known as inflammation-inducing factors was measured.
(§4) In order to investigate the effect of 5-adamantan-1-yl-N-(2,4-dihydroxybenzyl)-2,4-dimethoxybenzamide on inhibition of iNOS, COX-2 and IL-1β expression in RAW 264.7 cells, the cells were pretreated with 5-adamantan-1-yl-N-(2,4-dihydroxybenzyl)-2,4-dimethoxybenzamide at different concentrations and then RT-PCR was conducted after treating with LPS for 4 hours.

Data set [5] deals with COX-2. Briefly: LPS-induced COX-2 expression (RT-PCR). Format: cell-based, murine. The note with it: RAW 264.7 cells, pretreated at different concentrations, LPS 4 hours. The protocol: as §3, §4
The test system of data set [6] is IL-1β. Briefly: LPS-induced IL-1β expression (RT-PCR). Format: cell-based, murine. The note with it: RAW 264.7 cells, pretreated at different concentrations, LPS 4 hours. The protocol: as §3, §4
Data set [7] has as its system NF-κB. In words: NF-κB luciferase reporter gene assay. Format: cell-based. As to conditions: HEK 293 cells, NF-κB-Luc, MyD88 or TRIF cotransfected, 8 hours. The procedure:
as §1
(§5) The activity of transcription factors can be tested by the luciferase reporter gene assay. It is known that the activity of NF-κB and AP-1 is induced by the TLR adapter protein. NF-κB and AP-1 are known to produce the inflammatory factors NO and PGE2.
(§6) HEK 293 cells (1×10^6 cells/well) were cotransfected with 1 μg of a plasmid containing NF-κB-Luc (luciferase) and AP-1-Luc constructs. The transfection was conducted on a 12-well plate by the PEI method. After 48 hours, the transformed cells were used for experiment. MyD88 or TRIF (1 μg/mL each), which are known as TLR adapter proteins, were cotransfected for 8 hours together with 5-adamantan-1-yl-N-(2,4-dihydroxybenzyl)-2,4-dimethoxybenzamide (5-adamantan-1-yl-N-(2,4-dihydroxybenzyl)-2,4-dimethoxybenzamide is denoted as ‘AP736’ in FIG. 5). The luciferase reporter gene assay was performed using the luciferase assay system (Promega, Madison, Wis.).

Data set [8] relates to AP-1. Briefly: AP-1 luciferase reporter gene assay. Format: cell-based. The note with it: HEK 293 cells, AP-1-Luc, MyD88 or TRIF cotransfected, 8 hours. The procedure: as §1, §5, §6
On the technique in general: Reporter assays use an easily measured gene product as a stand-in for the process of interest.

For the compound `COc1cc(OC)c(C23CC4CC(CC(C4)C2)C3)cc1C(=O)NCc1ccc(O)cc1O` [5-adamantan-1-yl-N-(2,4-dihydroxybenzyl)-2,4-dimethoxybenzamide], the cell viability in data set [1] (10 μM, treated for 8 hours) is reported as 100%; in data set [1] (10 μM, treated for 24 hours) it was 100%; in data set [1] (20 μM, treated for 8 hours), 100%; in data set [1] (20 μM, treated for 24 hours), 100%; in data set [1] (30 μM, cultured for 24 hours), roughly 80%. In addition, the NO production entry in data set [2] is reported as “statistically significant decrease in NO production with increasing concentration”. Further, in data set [3], the “concentration of PGE2” value is on record as “decreased as compared to the group treated only with LPS with increasing concentration”. Further, the “expression of the mRNAs and proteins of iNOS induced by LPS” value in data set [4] is listed as “distinctly inhibited”. Further, the “expression of the mRNAs and proteins of COX-2 induced by LPS” value in data set [5] is given as “distinctly inhibited”. In addition, in data set [6], the “expression of the mRNAs and proteins of IL-1β induced by LPS” value is given as “distinctly inhibited”. In data set [7], the “activity of NF-κB” value is recorded as “decreased activity”. Besides, the “activity of AP-1” value in data set [8] is listed as “decreased activity”.
